Experimental data as given in patent publication US20100041615A1 (Medac Gesellschaft Fur Klinische Spezialpraparate MBH, priority 2006, published 2010).
Starred links: 1 amine or outer side, 2 acyl side, 3 side chain; linkers in the order of their positions; H or OH if unused. Non-standard residues stand in square brackets, D forms with d. Residues, ends and D or L forms follow the SMILES beside them. Groups on a side chain read outwards from the residue. *: point of attachment. γ‑MTX = gamma-methotrexate, CN(Cc1cnc2nc(N)nc(N)c2n1)c1ccc(C(=O)N[C@@H](CCC(=O)*)C(=O)O)cc1; DAMPA = CN(Cc1cnc2nc(N)nc(N)c2n1)c1ccc(C(=O)*)cc1; Hexanoyl(6-maleimido) = O=C1C=CC(=O)N1CCCCCC(=O)*; γGlu = O=C(O)[C@H](CCC(=O)[*:2])N[*:1]

Tests used:
human plasma plasmin [1] = target: human plasma plasmin (Homo sapiens, UniProt P00747); assay type: biochemical; settings: pH 7.4
human plasma plasmin (Homo sapiens, UniProt P00747), sequence (P00747 581-810 limits assumed): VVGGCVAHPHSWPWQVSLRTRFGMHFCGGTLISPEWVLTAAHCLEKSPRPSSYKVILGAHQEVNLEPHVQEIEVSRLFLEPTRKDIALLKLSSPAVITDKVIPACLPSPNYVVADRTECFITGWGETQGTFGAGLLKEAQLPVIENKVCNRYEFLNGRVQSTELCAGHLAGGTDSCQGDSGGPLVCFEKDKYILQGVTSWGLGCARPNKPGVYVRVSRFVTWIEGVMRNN
human plasma plasmin (Homo sapiens, UniProt P00747), sequence (P00747 98-580 partner limits assumed): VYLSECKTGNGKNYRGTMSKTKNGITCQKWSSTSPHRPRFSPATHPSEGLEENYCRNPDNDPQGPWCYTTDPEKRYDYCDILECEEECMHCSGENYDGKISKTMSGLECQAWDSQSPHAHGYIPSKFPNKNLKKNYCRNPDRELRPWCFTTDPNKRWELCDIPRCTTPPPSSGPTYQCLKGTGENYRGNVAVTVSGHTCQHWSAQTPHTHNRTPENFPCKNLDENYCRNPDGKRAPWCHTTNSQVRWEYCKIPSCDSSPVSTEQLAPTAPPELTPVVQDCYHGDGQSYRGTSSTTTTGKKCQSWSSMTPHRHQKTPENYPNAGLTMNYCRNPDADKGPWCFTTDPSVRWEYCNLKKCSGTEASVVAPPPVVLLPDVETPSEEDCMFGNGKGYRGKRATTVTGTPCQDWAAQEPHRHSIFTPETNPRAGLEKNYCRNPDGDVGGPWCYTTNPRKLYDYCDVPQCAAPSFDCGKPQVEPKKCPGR
Method: Preparation of the albumin conjugate: 4.00 mg of EMC-D-Ala-Phe-Lys-Lys(γ-MTX)-OH are dissolved in 8 mL of a 5% HSA solution (Octopharm) at room temperature and shaken at 37° C. for 2 hours. Subsequently, the sample is brought to a concentration of 700 μM by concentration with Centriprep® disposable concentrators.
Cleavage by plasmin: Now, 100 μL of the solution of the albumin conjugate are diluted with 500 μL buffer (4 mM sodium phosphate, 150 mM NaCl, pH 7.4), 20 μL of human plasma plasmin (370 mU) are added and the mixture is incubated at 37° C. The determination of the cleavage products is performed with the HPLC method described in Example 2 (FIGS. 3 and 4).

[2] = assay type: in vitro ADME, human
Method: Preparation of the Tumor Homogenate: The Tumor Material is Comminuted by Means of a scalpel, and 200 mg of the mass are homogenized in a shaker with 800 μL buffer (Tris-buffer pH 7.4) with addition of 3-4 glass beads. Subsequently, centrifugation is carried out at 4° C. and the supernatant is aliquoted to 200 μL.
Now, 100 μL of the solution of the albumin conjugate EMC-D-Ala-Phe-Lys-Lys(γ-MTX)-OH described in Example 4 are diluted with 500 μL of a homogenate solution (homogenate, 1:2 diluted with buffer [4 mM sodium phosphate, 150 mM NaCl, pH 7.4]) and incubated at 37° C. The determination of the cleavage products is performed with the HPLC method described in Example 2 (FIG. 7).

[3] = OVCAR-3 tumor homogenate (homogenate of a human ovarian xenograft); settings: human ovarian xenograft (OVCAR-3), 37° C., up to four hours
human plasma plasmin [4] = test: human plasma plasmin (370 mU) in buffer (4 mM sodium phosphate, 150 mM NaCl, pH 7.4); settings: 37° C., up to 20 hours
human cathepsin B = human cathepsin B (2.1 U) in buffer (50 mM sodium acetate, 100 mM NaCl, 4 mM EDTA*2 Na, 8 mM L-cysteine, pH 5.0); settings: 37° C., up to 24 hours
[5] = synovial fluid of six patients suffering from rheumatoid arthritis; settings: human (patients suffering from rheumatoid arthritis), 37° C., up to four hours
HSA = HSA (Homo sapiens, UniProt P02768); test: Bonding to HSA in human plasma (C18-RP-HPLC)
HSA, sequence (P02768 25-609): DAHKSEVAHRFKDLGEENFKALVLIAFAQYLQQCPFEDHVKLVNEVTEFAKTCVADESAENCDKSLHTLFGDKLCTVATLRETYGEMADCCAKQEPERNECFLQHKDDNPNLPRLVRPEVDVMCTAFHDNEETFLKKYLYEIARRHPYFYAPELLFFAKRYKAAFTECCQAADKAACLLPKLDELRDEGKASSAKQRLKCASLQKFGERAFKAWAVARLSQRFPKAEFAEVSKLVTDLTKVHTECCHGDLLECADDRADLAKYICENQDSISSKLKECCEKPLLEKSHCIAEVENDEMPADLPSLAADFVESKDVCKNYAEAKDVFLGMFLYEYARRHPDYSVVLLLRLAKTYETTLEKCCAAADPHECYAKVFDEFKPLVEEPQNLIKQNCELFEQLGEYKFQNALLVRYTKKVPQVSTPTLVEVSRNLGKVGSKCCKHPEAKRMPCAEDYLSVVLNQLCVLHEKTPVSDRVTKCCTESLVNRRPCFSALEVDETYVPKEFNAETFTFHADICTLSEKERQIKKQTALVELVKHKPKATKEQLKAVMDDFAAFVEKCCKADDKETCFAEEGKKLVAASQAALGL

human blood plasma = settings: 37° C., up to 24 hours
[6] = Cleavage experiments of the albumin conjugates, summary of the examples; assay type: in vitro ADME; settings: after cleavage of the albumin conjugates
Method: It becomes evident from the examples that after incubation with human blood plasma, the corresponding albumin conjugate is substantially formed already after 2 min. […] The cleavage results in the formation of e.g. H-Lys(γ-MTX)-OH, which constitutes the only low-molecular cleavage product. […] In the case of the collagen-induced arthritis model, it is about 20% of the corresponding methotrexate equivalent dosage.

[7] = tested on: OVCAR-3 (ovarian carcinoma growing subcutaneously); test: In vivo tumor-inhibiting properties, OVCAR-3 model; design: species or system nude mice NMRI; settings: i.v. day 7, 14, 21, 28; dosage [mg/Kg] MTX equivalents: MTX 4 × 100, AW054-EMC 4 × 15, C175 3 × 15
Method: Animals: nude mice NMRI; tumor model: OVCAR-3 (ovarian carcinoma growing subcutaneously) Therapy: day 7, 14, 21, 28; i. v. (10 mM sodium phosphate/5% D-glucose buffer pH 6.4); dosages relate to methotrexate equivalents.

[8] = tested on: collagen-induced arthritis model; test: In vivo antirheumatic properties, collagen-induced arthritis model, therapy day 30-48; design: species or system mice (m, DBA/1); settings: i.v. day 30, 34, 37, 41, 44, 48; dosage [mg/Kg] MTX equivalents: MTX 6 × 35, AW054-EMC 6 × 20
Method: Animals: mice (m, DBA/1; model: collagen-induced arthritis model) Therapy: day 30, 34, 37, 41, 44, 48; i. v. (10 mM sodium phosphate/5% D-glucose buffer pH 6.4); dosages relate to methotrexate equivalents.

[9] = tested on: collagen-induced arthritis model; test: Collagen-induced arthritis model, therapy twice a week as of day 14, 42 or 30 (Table 1: early treatment protocol); assay type: in vivo, mice (m, DBA/1); settings: 35 mg/kg, n = 15, early treatment protocol
Method: Animals: mice (m, DBA/1; model: collagen-induced arthritis model) Therapy: twice a week as of day 14, 42 and 30, respectively; i. v. (10 mM sodium phosphate/5% D-glucose buffer pH 6.4); dosages relate to methotrexate equivalents.

Q: For “HSA-EMC-D-Ala-Phe-Lys-Lys(γ-MTX)-OH ({HSA-Hexanoyl(6-maleimido)}-[dA]FKK(γ‑MTX)-OH)”, which cleavage by plasmin (human plasma plasmin [1]) is on record?
A: formation of H-Lys(γ-MTX)-OH as a cleavage product

Q: What about the “cleavage in OVCAR-3 tumor homogenate” value [2] of the same compound?
A: formation of H-Lys(γ-MTX)-OH as a cleavage product can be observed

Q: Which results are given for HSA-EMC-D-Ala-Phe-Lys-Lys(γ-MTX)-OH?
A: fragment found [3]: H-Lys(γ-MTX)-OH, four hours; cleaved bond (human plasma plasmin [4]): Lys-Lys, one and four hours, respectively; cleaved bond (human cathepsin B): Lys-Lys, one and four hours, respectively

Q: For EMC-Arg-Ala-Phe-Met-Lys(γ-MTX)-OH, which fragment found [5] is on record?
A: H-Lys(γ-MTX)-OH, four hours

Q: With `CSCC[C@H](NC(=O)[C@H](Cc1ccccc1)NC(=O)[C@H](C)NC(=O)[C@H](CCCNC(=N)N)NC(=O)CCCCCN1C(=O)C=CC1=O)C(=O)N[C@@H](CCCCNC(=O)CC[C@H](NC(=O)c1ccc(N(C)Cc2cnc3nc(N)nc(N)c3n2)cc1)C(=O)O)C(=O)O` [C162, EMC-Arg-Ala-Phe-Met-Lys(γ-MTX)-OH] ({Hexanoyl(6-maleimido)}-RAFMK([γGlu-DAMPA])-OH) as the compound, how does the “bonding of the prodrug to HSA (albumin) in human plasma” value (HSA; 200 μM, 2 min incubation with human blood plasma at 37° C., HPLC detection at 300 or 370 nm) read?
A: almost complete decrease of the prodrug peak

Q: And the “bonding of the prodrug to albumin in plasma with blocked cysteine-34-group” value (HSA; human blood plasma incubated with EMC (1000 μM) in advance, detection 370 nm)?
A: does not show a bonding of the prodrug to albumin

Q: With “EMC-D-Ala-Phe-Lys-Lys(γ-MTX)-OH ({Hexanoyl(6-maleimido)}-[dA]FKK([γGlu-DAMPA])-OH; SMILES C[C@@H](NC(=O)CCCCCN1C(=O)C=CC1=O)C(=O)N[C@@H](Cc1ccccc1)C(=O)N[C@@H](CCCCN)C(=O)N[C@@H](CCCCNC(=O)CC[C@H](NC(=O)c1ccc(N(C)Cc2cnc3nc(N)nc(N)c3n2)cc1)C(=O)O)C(=O)O)” as the compound, how does the not cleaved (human blood plasma) read?
A: loss of MTX is less than 10% after 24 hours

Q: With `CN(Cc1cnc2nc(N)nc(N)c2n1)c1ccc(C(=O)NC(CCC(=O)NCCCCC(N)C(=O)O)C(=O)O)cc1` (centres unmarked) [H-Lys(γ-MTX)-OH] as the compound, how does the “further cleavage of the cleavage product into MTX and lysine” value [6] read?
A: not cleaved into MTX and lysine any more

Q: For `CSCC[C@H](NC(=O)[C@H](C)NC(=O)[C@H](CCCNC(=N)N)NC(=O)[C@H](CCCNC(=N)N)NC(=O)CCCCCN1C(=O)C=CC1=O)C(=O)N[C@@H](CCCCNC(=O)CC[C@H](NC(=O)c1ccc(N(C)Cc2cnc3nc(N)nc(N)c3n2)cc1)C(=O)O)C(=O)O` [C175, EMC-Arg-Arg-Ala-Met-Lys(γ-MTX)-OH] ({Hexanoyl(6-maleimido)}-RRAMK([γGlu-DAMPA])-OH), which “change of body weight [%]” value [7] is on record?
A: +7%

Q: Which “change of body weight [%]” value [7] does the source give for `C[C@@H](NC(=O)CCCCCN1C(=O)C=CC1=O)C(=O)N[C@@H](Cc1ccccc1)C(=O)N[C@@H](CCCCN)C(=O)N[C@@H](CCCCNC(=O)CC[C@H](NC(=O)c1ccc(N(C)Cc2cnc3nc(N)nc(N)c3n2)cc1)C(=O)O)C(=O)O` [AW054-EMC, EMC-D-Ala-Phe-Lys-Lys(γ-MTX)-OH] ({Hexanoyl(6-maleimido)}-[dA]FKK([γGlu-DAMPA])-OH) here?
A: +12%

Q: What about the “change of body weight [%]” value [8] of the same compound?
A: −0.2%

Q: What does the source list for `CN(Cc1cnc2nc(N)nc(N)c2n1)c1ccc(C(=O)N[C@@H](CCC(=O)O)C(=O)O)cc1` [MTX, Methotrexate]?
A: T/C [%] maximum [7]: 69%; change of body weight [%] [7]: +19%; RA score Tag 55 [8]: 8.30; change of body weight [%] [8]: +6.9%; improved or achieved abatement after created disease, figure in parentheses (share of animals) [9]: (53); improved or achieved abatement after created disease, number of animals [9]: 8; mean arthritis score at the end of the test [9]: 3.1; mean period of time until breakout of renewed arthritis after beginning of treatment [9]: 17.3 days; occurrence of arthritis at the end of the test (%) [9]: (60) %; occurrence of arthritis at the end of the test, number of animals [9]: 9
